Experimental data from DBAASP.
Converted amounts (≈) assume the structure as drawn. Each block holds one molecule with its values, some of them ahead of it.

Assays:
Test in all cases: ≥ marks a high value that may be exact or a test limit, other limits are often not marked, values filed in µg/mL are converted to µM
[1] = system: Salmonella typhimurium KCTC 1926
[2] = system: Escherichia coli KCTC 1682
[3] = system: Staphylococcus epidermidis KCTC 1917
[4] = system: Pseudomonas aeruginosa KCTC 1637
Enterococcus faecalis VR = system: Enterococcus faecalis VR
Enterococcus faecium = system: Enterococcus faecium
Enterococcus faecalis = system: Enterococcus faecalis
Staphylococcus aureus MR = system: Staphylococcus aureus MR
[5] = system: Staphylococcus aureus KCTC 1621
[6] = system: Bacillus subtilis KCTC 3068
Enterococcus faecium VR = system: Enterococcus faecium VR
[7] = system: Escherichia coli ATCC 9637
[8] = system: Candida albicans ATCC 10231
[9] = system: Klebsiella pneumoniae ATCC 27736
[10] = system: Staphylococcus aureus ATCC 25923
[11] = system: Bacillus subtilis ATCC 6633
[12] = system: Staphylococcus aureus ATCC BAA-44
[13] = system: Staphylococcus aureus ATCC 29213
[14] = system: Pseudomonas aeruginosa ATCC BAA-427
[15] = system: Staphylococcus aureus ATCC 700699
[16] = system: Staphylococcus aureus ATCC 33592
Sporothrix schenckii = system: Sporothrix schenckii
Cryptococcus neoformans = system: Cryptococcus neoformans
[17] = system: Staphylococcus aureus ATCC 700698
[18] = system: Candida parapsilosis ATCC 22019
[19] = system: Klebsiella pneumoniae KpC+001825971
[20] = system: Streptococcus pyogenes ATCC 19615
[21] = system: Klebsiella pneumoniae ATCC 13885
[22] = system: Escherichia coli KpC+002101123
[23] = system: Proteus mirabilis ATCC 25933
[24] = system: Escherichia coli ATCC 8739
[25] = system: Salmonella enterica subsp. enterica serovar Typhimurium ATCC 14028
[26] = system: Escherichia coli KpC+001812446
[27] = system: Enterococcus faecalis ATCC 12953
[28] = system: Pseudomonas aeruginosa ATCC 15442
[29] = system: Staphylococcus aureus ATCC 33591
[30] = system: Klebsiella pneumoniae ATCC 700603
[31] = system: Escherichia coli ATCC 25922
[32] = system: Streptococcus pneumoniae ATCC 49619
[33] = system: Candida glabrata ATCC 15126
[34] = system: Escherichia coli ATCC 23506
[35] = system: Pseudomonas aeruginosa ATCC 9027
[36] = system: Enterococcus faecalis PCM 2673
[37] = system: Staphylococcus aureus ATCC 9144
[38] = system: Aspergillus niger ATCC 16404
Escherichia coli C25 = system: Escherichia coli C25

Compound: CC[C@H](C)[C@H](NC(=O)[C@H](CC(C)C)NC(=O)[C@H](CS)NC(=O)[C@H](Cc1cnc[nH]1)NC(=O)[C@H](C)NC(=O)[C@H](C)N)C(=O)NCC(=O)N[C@@H](CCCN=C(N)N)C(=O)N[C@@H](CCCCN)C(N)=O [AAHCLIGRK]
- MIC [1]: 15 µM
- MIC [2]: 15 µM
- MIC [3]: 7.5 µM
- MIC [4]: 15 µM
- MIC (Enterococcus faecalis VR): 30 µM
- MIC (Enterococcus faecium): 30 µM
- MIC (Enterococcus faecalis): 30 µM
- MIC (Staphylococcus aureus MR): 15 µM
- MIC [5]: 15 µM
- MIC [6]: 7.5 µM
- MIC (Enterococcus faecium VR): 7.5 µM

Compound: CC[C@H](C)[C@H](NC(=O)[C@H](C)NC(=O)CNC(=O)[C@H](CCCCN)NC(=O)[C@@H](NC(=O)[C@H](CC(C)C)NC(=O)[C@H](Cc1c[nH]c2ccccc12)NC(=O)CNC(=O)[C@H](Cc1ccccc1)NC(=O)[C@@H](N)Cc1ccccc1)[C@@H](C)CC)C(=O)N[C@@H](Cc1cnc[nH]1)C(=O)N[C@@H](C)C(=O)N1CCC[C@H]1C(=O)N[C@@H](CCCCN)C(=O)N[C@@H](C)C(=O)N[C@H](C(=O)N[C@@H](Cc1cnc[nH]1)C(=O)N1CCC[C@H]1C(=O)N[C@@H](CC(C)C)C(=O)N[C@H](C(=O)N[C@@H](Cc1cnc[nH]1)C(=O)N[C@@H](CCCN=C(N)N)C(=O)N[C@@H](CCCN=C(N)N)C(=O)N[C@@H](CCCN=C(N)N)C(=O)N[C@@H](Cc1cnc[nH]1)C(=O)O)[C@@H](C)CC)[C@@H](C)CC [FFGWLIKGAIHAPKAIHPLIHRRRH]
- MIC [7]: 6.8 µM (≈ 20.2 µg/mL)
- MIC [8]: > 30 µM
- MIC [9]: 27.2 µM (≈ 80.9 µg/mL)
- MIC [10]: 3 µM (≈ 8.92 µg/mL)
- MIC [11]: 3 µM (≈ 8.92 µg/mL)
- MIC [12]: 3 µM (≈ 8.92 µg/mL)
- MIC [13]: 3 µM (≈ 8.92 µg/mL)
- MIC [14]: 13.6 µM (≈ 40.4 µg/mL)
- MIC [15]: 3 µM (≈ 8.92 µg/mL)
- MIC [16]: 1.6 µM (≈ 4.76 µg/mL)
- MIC (Sporothrix schenckii): 30 µM (≈ 89.2 µg/mL)
- MIC (Cryptococcus neoformans): 30 µM (≈ 89.2 µg/mL)
- MIC [17]: 3 µM (≈ 8.92 µg/mL)
- MIC [18]: 30 µM (≈ 89.2 µg/mL)

Compound: CC[C@H](C)[C@H](NC(=O)[C@H](CCCCN)NC(=O)CNC(=O)[C@H](CC(C)C)NC(=O)[C@H](Cc1ccccc1)NC(=O)[C@H](CCC(N)=O)NC(=O)[C@H](Cc1ccccc1)NC(=O)[C@@H](NC(=O)[C@@H](NC(=O)[C@@H](NC(=O)[C@@H]1CCCN1C(=O)[C@H](CC(C)C)NC(=O)[C@@H](N)Cc1ccccc1)[C@@H](C)CC)[C@@H](C)CC)C(C)C)C(=O)N[C@H](C(=O)N[C@@H](Cc1cnc[nH]1)C(=O)N[C@@H](Cc1cnc[nH]1)C(=O)N[C@H](C(=O)NCC(=O)N[C@@H](CC(N)=O)C(=O)N[C@@H](Cc1ccccc1)C(=O)N[C@H](C(=O)N[C@@H](Cc1cnc[nH]1)C(=O)NCC(=O)N[C@@H](Cc1ccccc1)C(=O)N[C@@H](CO)C(=O)N[C@@H](Cc1cnc[nH]1)C(=O)N[C@H](C(=O)N[C@@H](Cc1ccccc1)C(N)=O)C(C)C)C(C)C)C(C)C)[C@@H](C)CC [FLPIIVFQFLGKIIHHVGNFVHGFSHVF]
- MIC [19]: 3 µM (≈ 9.75 µg/mL)
- MIC [11]: 1.5 µM (≈ 4.87 µg/mL)
- MIC [20]: 6 µM (≈ 19.5 µg/mL)
- MIC [21]: 3 µM (≈ 9.75 µg/mL)
- MIC [13]: 24 µM (≈ 78 µg/mL)
- MIC [22]: 6 µM (≈ 19.5 µg/mL)
- MIC [23]: 6 µM (≈ 19.5 µg/mL)
- MIC [24]: 12 µM (≈ 39 µg/mL)
- MIC [25]: 3 µM (≈ 9.75 µg/mL)
- MIC [26]: 6 µM (≈ 19.5 µg/mL)
- MIC [27]: 1.5 µM (≈ 4.87 µg/mL)
- MIC [28]: 3 µM (≈ 9.75 µg/mL)
- MIC [29]: 6 µM (≈ 19.5 µg/mL)

More lines, now with the values ahead:

- MIC [8]: 145 µM (≈ 256 µg/mL)
- MIC [30]: 1.13 µM (≈ 2 µg/mL)
- MIC [31]: 72.3 µM (≈ 128 µg/mL)
- MIC [10]: 72.3 µM (≈ 128 µg/mL)
- MIC [32]: ≥ 72.3 µM
- MIC [33]: ≥ 145 µM
- MIC [34]: ≥ 36.1 µM
- MIC [35]: 4.52 µM (≈ 8 µg/mL)
- MIC [36]: ≥ 36.1 µM
- MIC [37]: ≥ 36.1 µM
- MIC [38]: ≥ 145 µM
Compound: CC[C@H](C)[C@H](NC(=O)CNC(=O)[C@H](C)NC(=O)[C@@H](NC(=O)[C@H](CC(C)C)NC(=O)[C@H](CCCCN)NC(=O)[C@@H](NC(=O)[C@@H](N)CC(C)C)C(C)C)C(C)C)C(=O)N[C@@H](CCCCN)C(=O)N[C@@H](CCCCN)C(=O)N[C@@H](Cc1ccccc1)C(=O)N[C@@H](CC(C)C)C(=O)N[C@@H](CCCCN)C(=O)N[C@@H](Cc1c[nH]c2ccccc12)C(=O)N[C@@H](CCCCN)C(N)=O [LVKLVAGIKKFLKWK]

- MIC [10]: 8.4 µM (≈ 15.6 µg/mL)
- MIC (Escherichia coli C25): 2.1 µM (≈ 3.9 µg/mL)
Compound: CC[C@H](C)[C@H](NC(=O)[C@H](Cc1ccc(O)cc1)NC(=O)[C@H](CCCN=C(N)N)NC(=O)[C@H](CCCN=C(N)N)NC(=O)[C@@H](N)CCCN=C(N)N)C(=O)NCC(=O)N[C@@H](CCCN=C(N)N)C(=O)N[C@@H](Cc1ccc(O)cc1)C(=O)N[C@H](C(=O)N[C@@H](CCCN=C(N)N)C(=O)N[C@@H](Cc1ccccc1)C(=O)N[C@@H](Cc1c[nH]c2ccccc12)C(=O)N[C@@H](CCCCN)C(N)=O)C(C)C [RRRYIGRYVRFWK]
